ChEMBL document CHEMBL4043165, “Synthesis, estrogen receptor binding affinity and molecular docking of pyrimidine-piperazine-chromene and -quinoline conjugates” (Bioorg Med Chem Lett, 2017)

Legend:
Type in all cases: cell-based
HEK-293T [1] = test: Cytotoxicity against HEK293T cells assessed as reduction in cell viability at <50 uM after 48 hrs by MTT assay; conditions: human
HEK-293T [2] = test: Cytotoxicity against HEK293T cells assessed as reduction in cell viability after 48 hrs by MTT assay; conditions: Homo sapiens
[3] = Modulation activity at ER in human MCF7 cells assessed as reduction in cell viability after 48 hrs by MTT assay; conditions: MCF7, 48 h
HEK-293T [4] = test: Cytotoxicity against HEK293T cells assessed as reduction in cell viability up to 50 uM after 48 hrs by MTT assay; conditions: human

Structure (SMILES): Cc1nc(Oc2ccc3c(c2)NC(N)=C(C#N)C3c2ccccc2C)cc(N2CCN(CCO)CC2)n1 (stereo unspecified)
- Activity (HEK-293T [1]): Toxic
- IC50 (HEK-293T [2]): 57 µM
- IC50 [3]: 198 µM

Structure (SMILES): Cc1nc(Oc2ccc3c(c2)OC(N)=C(C#N)C3c2ccccc2Cl)cc(N2CCN(CCO)CC2)n1 (stereo unspecified)
- Activity (HEK-293T [1]): Toxic
- IC50 (HEK-293T [2]): 79 µM
- IC50 [3]: 119 µM

Structure (SMILES): COc1cccc(C2C(C#N)=C(N)Nc3cc(Oc4cc(N5CCN(CCO)CC5)nc(C)n4)ccc32)c1 (stereo unspecified)
- Activity (HEK-293T [1]): Toxic
- IC50 (HEK-293T [2]): 39 µM
- IC50 [3]: 166 µM

Structure (SMILES): Cc1ccc(C2C(C#N)=C(N)Nc3cc(Oc4cc(N5CCN(CCO)CC5)nc(C)n4)ccc32)cc1 (stereo unspecified)
- Activity (HEK-293T [4]): Non-Toxic
- IC50 (HEK-293T [2]): 140 µM
- IC50 [3]: 48 µM

Structure (SMILES): Cc1nc(Oc2ccc3c(c2)NC(N)=C(C#N)C3c2ccc(Br)cc2)cc(N2CCN(CCO)CC2)n1 (stereo unspecified)
- Activity (HEK-293T [1]): Toxic
- IC50 (HEK-293T [2]): 62 µM
- IC50 [3]: 193 µM

Structure (SMILES): Cc1nc(Oc2ccc3c(c2)OC(N)=C(C#N)C3c2ccc(Br)cc2)cc(N2CCN(CCO)CC2)n1 (stereo unspecified)
- Activity (HEK-293T [1]): Toxic
- IC50 (HEK-293T [2]): 19 µM
- IC50 [3]: 91 µM

Structure (SMILES): Cc1nc(Oc2ccc3c(c2)OC(N)=C(C#N)C3c2ccccc2)cc(N2CCN(CCO)CC2)n1 (stereo unspecified)
- Activity (HEK-293T [4]): Non-Toxic
- IC50 (HEK-293T [2]): > 200 µM
- IC50 [3]: 92 µM

Structure (SMILES): COc1cc(/C=C/C(=O)CC(=O)/C=C/c2ccc(O)c(OC)c2)ccc1O [CURCUMIN]
- IC50 (HEK-293T [2]): > 400 µM

Structure (SMILES): Cc1nc(Oc2ccc3c(c2)NC(N)=C(C#N)C3c2ccccc2Cl)cc(N2CCN(CCO)CC2)n1 (stereo unspecified)
- Activity (HEK-293T [1]): Toxic
- IC50 (HEK-293T [2]): 70 µM
- IC50 [3]: 190 µM

Structure (SMILES): Cc1ccc(C2C(C#N)=C(N)Oc3cc(Oc4cc(N5CCN(CCO)CC5)nc(C)n4)ccc32)cc1 (stereo unspecified)
- Activity (HEK-293T [4]): Non-Toxic
- IC50 (HEK-293T [2]): > 200 µM
- IC50 [3]: 16 µM

Structure (SMILES): COc1ccc(C2C(C#N)=C(N)Oc3cc(Oc4cc(N5CCN(CCO)CC5)nc(C)n4)ccc32)cc1 (stereo unspecified)
- Activity (HEK-293T [1]): Toxic
- IC50 (HEK-293T [2]): 55 µM
- IC50 [3]: 104 µM

Structure (SMILES): COc1ccc(C2C(C#N)=C(N)Nc3cc(Oc4cc(N5CCN(CCO)CC5)nc(C)n4)ccc32)cc1 (stereo unspecified)
- Activity (HEK-293T [1]): Toxic
- IC50 (HEK-293T [2]): 62 µM
- IC50 [3]: 12 µM

Structure (SMILES): Cc1nc(Oc2ccc3c(c2)OC(N)=C(C#N)C3c2ccc(F)cc2)cc(N2CCN(CCO)CC2)n1 (stereo unspecified)
- Activity (HEK-293T [1]): Toxic
- IC50 (HEK-293T [2]): 52 µM
- IC50 [3]: 166 µM

Structure (SMILES): Cc1nc(Oc2ccc3c(c2)NC(N)=C(C#N)C3c2ccccc2)cc(N2CCN(CCO)CC2)n1 (stereo unspecified)
- Activity (HEK-293T [4]): Non-Toxic
- IC50 (HEK-293T [2]): 141 µM
- IC50 [3]: 65 µM

Structure (SMILES): Cc1nc(Oc2ccc3c(c2)OC(N)=C(C#N)C3c2ccccc2C)cc(N2CCN(CCO)CC2)n1 (stereo unspecified)
- Activity (HEK-293T [1]): Toxic
- IC50 (HEK-293T [2]): 56 µM
- IC50 [3]: 61 µM

Structure (SMILES): Cc1nc(Oc2ccc3c(c2)NC(N)=C(C#N)C3c2ccc(F)cc2)cc(N2CCN(CCO)CC2)n1 (stereo unspecified)
- Activity (HEK-293T [1]): Toxic
- IC50 (HEK-293T [2]): 72 µM
- IC50 [3]: 48 µM

Structure (SMILES): Cc1nc(Oc2ccc3c(c2)OC(N)=C(C#N)C3c2ccc(Cl)cc2)cc(N2CCN(CCO)CC2)n1 (stereo unspecified)
- Activity (HEK-293T [1]): Toxic
- IC50 (HEK-293T [2]): 18 µM
- IC50 [3]: 73 µM

Structure (SMILES): Cc1nc(Oc2ccc3c(c2)NC(N)=C(C#N)C3c2ccc(Cl)cc2)cc(N2CCN(CCO)CC2)n1 (stereo unspecified)
- Activity (HEK-293T [1]): Toxic
- IC50 (HEK-293T [2]): 95 µM
- IC50 [3]: 170 µM

Structure (SMILES): Cc1nc(Oc2ccc3c(c2)OC(N)=C(C#N)C3c2c(Cl)cccc2Cl)cc(N2CCN(CCO)CC2)n1 (stereo unspecified)
- Activity (HEK-293T [1]): Toxic
- IC50 (HEK-293T [2]): 51 µM
- IC50 [3]: 136 µM

Structure (SMILES): Cc1nc(Oc2ccc3c(c2)NC(N)=C(C#N)C3c2c(Cl)cccc2Cl)cc(N2CCN(CCO)CC2)n1 (stereo unspecified)
- Activity (HEK-293T [1]): Toxic
- IC50 (HEK-293T [2]): 62 µM
- IC50 [3]: 102 µM

Structure (SMILES): Cc1nc(Oc2ccc3c(c2)OC(N)=C(C#N)C3c2ccc([N+](=O)[O-])cc2)cc(N2CCN(CCO)CC2)n1 (stereo unspecified)
- Activity (HEK-293T [4]): Non-Toxic
- IC50 (HEK-293T [2]): 105 µM
- IC50 [3]: 30 µM
